These results are taken from US20110245088A1, “AMIDE-BASED SOLUTION-PHASE DERIVED LIBRARY AND METHOD FOR SCREENING THEREOF” (NATIONAL TSING HUA UNIVERSITY, priority 2010, published 2011).

The structures appear in SMILES notation. Entries after “also recorded” stand apart in the source; their conditions may differ. Like-named read-outs stand apart in the source and are kept apart here.

One data set relates to MCF7 cell line. As to the kind of experiment: Cytotoxicity by MTT assay, MCF7 cell line. Format: cell-based, human. The conditions noted are these: for IC50: MCF7 cell line, purified compounds, incubation of 2 days, read-out: IC 50 of the Compounds Purified from Independent Synthesis, MCF7; for biological activity (cytotoxicity) in crude library assay: crude coupling products, MCF7 (FIGS. 4a-c; cell line not always given). The method, then: (§1) The cell lines were used in the present invention, including A549 (Human type II epithelial cell line, from American Type Culture Collection, Manassas, Va.) and MCF7 (solid human estrogen receptor positive breast carcinoma). A 10 μl coupling product solution was added into the well of microtiterplate planted with 100 μl of above mentioned cell lines in a concentration of 30000 cells/mL. Furthermore, the coupling product in each well was diluted before transferring to the plate. Thus the appropriate working concentration could be determined since the cellular survival ratio of most compounds acting as negative control is greater than 80%. The method was illustrated in FIG. 3. After an incubation of 2 days, the supernatants were washed, followed by adding MTT reagents. After 4 hours, absorbance at 580 nm was recorded according to the usual protocol.

The test system of the next data set is A549 cell line. The experiment in a line: Cytotoxicity by MTT assay, A549 cell line. Format: cell-based, Human. As to conditions: for IC50: A549 cell line, purified compounds, incubation of 2 days, read-out: IC 50 of the Compounds Purified from Independent Synthesis, A549. The method, then: as §1

As for `C=C(CC)C(=O)c1ccc(OCC(=O)NC[C@H]2O[C@@H](n3ccc(=O)[nH]c3=O)C[C@@H]2O)c(Cl)c1Cl` [A15], in the data set with MCF7 cell line, the IC50 is greater than 100 µM and the “biological activity (cytotoxicity) in crude library assay” value (shortened to “biological activity (cytotoxicity)”) was “exhibited biological activity”. Further, in the data set with A549 cell line, the IC50 is greater than 100 µM.
Consider `O=C(NCC1OC(n2ccc(=O)[nH]c2=O)CC1O)c1cccc(C(=O)c2ccc(F)cc2)c1` (centres unmarked) [A16], for which the IC50 in the data set with MCF7 cell line and with A549 cell line was greater than 100 µM each time.
In the case of `C=C(CC)C(=O)c1ccc(OCC(=O)NCCCC)c(Cl)c1Cl` [C15], in the data set on MCF7 cell line, the IC50 was determined as 8 ± 5 µM and the “biological activity (cytotoxicity)” value is reported as “exhibited biological activity”. Further, in the data set on A549 cell line, the IC50 came out at 18 µM.
For `CCCCNC(=O)c1cccc(C(=O)c2ccc(F)cc2)c1` [C16], the IC50 in the data set on MCF7 cell line and in the data set with A549 cell line was greater than 100 µM throughout.
On to `CCCCNC(=O)CCC(=O)c1ccc(-c2ccccc2)cc1` [C18], for which the IC50 in the data set with MCF7 cell line was determined as 87 µM; in the data set on A549 cell line it was 100 µM. Besides, the “biological activity (cytotoxicity)” value with MCF7 cell line was “exhibited biological activity; also recorded: unexpected bioactivity”; with A549 cell line (crude coupling products, A549), “unexpected bioactivity”.
For the compound `N.N.[Cl][Pt][Cl]` [Cisplatin, reference compound], the IC50 was 25 ± 6 µM in the data set with MCF7 cell line and 8 ± 3 µM in the data set on A549 cell line.
In the case of `C=C(CC)C(=O)c1ccc(OCC(=O)O)c(Cl)c1Cl` [D15, 2-(2,3-dichloro-4-(2-methylenebutanoyl)phenoxy)acetic acid, reference compound], the IC50 came out at 26 ± 2 µM with MCF7 cell line (Homo sapiens, 48 h) and 84 ± 16 µM in the data set with A549 cell line (Homo sapiens, 48 h).
The corresponding values for `O=C(O)c1cccc(C(=O)c2ccc(F)cc2)c1` [D16, 3-(4-fluorobenzoyl)benzoic acid, reference compound] are greater than 100 µM and greater than 100 µM.
On to `O=C(O)CCC(=O)c1ccc(-c2ccccc2)cc1` [D18, 4-([1,1′-biphenyl]-4-yl)-4-oxobutanoic acid, reference compound], for which the IC50 in the data set with MCF7 cell line (Homo sapiens, 48 h) was greater than 100 µM; in the data set with A549 cell line (Homo sapiens, 48 h), greater than 100 µM.
Consider `O=C(NCC1OC(n2ccc(=O)[nH]c2=O)C(O)C1O)c1ccccc1` (centres unmarked) [U1], for which the IC50 in the data set on MCF7 cell line and in the data set with A549 cell line was greater than 100 µM in each case.
With `O=C(CCC(=O)c1ccc(-c2ccccc2)cc1)NCC1OC(n2ccc(=O)[nH]c2=O)C(O)C1O` (centres unmarked) [U18], the IC50 in the data set on MCF7 cell line and with A549 cell line was greater than 100 µM in each case.
For `CCCCCCCCCCCC(=O)NC[C@H]1O[C@@H](n2ccc(=O)[nH]c2=O)[C@H](O)[C@@H]1O` [U27], the IC50 is roughly 100 µM with MCF7 cell line and greater than 100 µM in the data set on A549 cell line. In the data set with MCF7 cell line, the “biological activity (cytotoxicity)” value was “exhibited biological activity; also recorded: subtle cytotoxicity”.
